Assay results from patent publication US8263638B2, “Dosing regimens for ion channel modulating compounds” (priority 2004, dated 2012).
Where two headings read alike, the source gives them in different places.

Tests used:
Assay type in all cases: in vivo, human
[1] = Plasma levels in Atrial Arrhythmia Conversion Trial 1 (Example 6); conditions: for concentration at 10 min: human, plasma, intravenous
Experimental: Plasma levels were obtained, where possible, for the patients at various time intervals following the initial infusion. The time intervals were 10 minutes (i.e., immediately after the initial infusion), 35 minutes (i.e., immediately after the second infusion where applicable), 50 minutes, 90 minutes, and 24 hours.

[2] = COMPOUND A plasma concentrations in acute AF study (Example 2)
Experimental: A Holter rhythm strip continuously monitored ECG, vital signs (blood pressure and heart rate, BP and HR, respectively) and O2 saturation were recorded every 2 min from the start of infusion to 5 min after, as well as at 15, 30, 60, 120, 240, 360, and 480 min and at discharge and one-week follow-up. Twelve-lead ECGs were obtained before dosing and every minute during infusion to 5 min after, as well as at 15, 30, 60, 120, 240, 360, and 480 min and at discharge, 24 h and one-week follow-up, and at the time of arrhythmia termination or significant rhythm changes. Venous blood samples were drawn for COMPOUND A plasma concentrations at 0, 15, 30, 120, 240, 480 min discharge and at AF termination or significant adverse events.
COMPOUND A doses were infused over 10 min as indicated in the text. Initially a 2 mg/kg infusion was given and if required an additional 3 mg/kg was infused 30 min later in the RSD-2 group. Time is shown relative to the end of the first infusion (T1).

[3] = tested on: atrial fibrillation duration from 3 hours to 45 days; test: Atrial Arrhythmia Conversion Trial 1, Phase III (Example 6); conditions: for median time to conversion: responders
Experimental: This study was conducted to assess the efficacy and safety of COMPOUND A in the conversion of atrial fibrillation to sinus rhythm in humans. The study was a randomized, double-blind, placebo-controlled Phase III study.
Patients were randomized in a 2:1 ratio (COMPOUND A:placebo) and stratified by atrial fibrillation duration. The entire group of patients (pts) had atrial fibrillation duration from 3 hours to 45 days. One subgroup had atrial fibrillation duration from 3 hours to 7 days. Another subgroup had atrial fibrillation duration from 8 days to 45 days.
The primary endpoint of the study was the proportion of patients with atrial fibrillation duration of 3 hours to 7 days who had treatment-induced conversion of atrial fibrillation to sinus rhythm with 90 minutes. Secondary endpoints include the time-to-conversion of atrial fibrillation to sinus rhythm in patients with atrial fibrillation of 3 hours to 7 days and the proportion of patients with termination of atrial fibrillation within 90 minutes in the subgroup of patients with 8 days to 45 days of atrial fibrillation duration and in the entire group of patients with 3 hours to 45 days of atrial fibrillation duration.
Dosing was as follows: Placebo or 3.0 mg/kg of COMPOUND A was administered by infusion over a 10 minute period, followed by a 15-minute observation period. If atrial fibrillation was not terminated, placebo or 2.0 mg/kg of COMPOUND A was adminstered by infusion over a 10 minute period.
The patient population was randomized (n=[…]). […] There were 220 patients in the subgroup having 3 hours to 7 days atrial fibrillation. Of these 220 patients, 75 received placebo and 145 received COMPOUND A. There were 116 patients in the subgroup having 8 days to 45 days atrial fibrillation. Of these 116 patients, 40 received placebo and 76 received COMPOUND A.

[4] = patients receiving both infusions
[5] = patients receiving only a first infusion
[6] = patients that received only the 2 mg/kg infusion
[7] = 30-day follow-up period after dosing, n = 221
[8] = 24 hour period post-dosing, holter, n = 221
[9] = 24 hour time period following dosing, n = 221
[10] = non-responders with attempted cardioversion

Question: What does the source list for `COc1ccc(CCO[C@@H]2CCCC[C@H]2N2CC[C@@H](O)C2)cc1OC.Cl` [COMPOUND A, (1R,2R)-2-[(3R)-hydroxypyrrolidinyl]-1-(3,4-dimethoxyphenethoxy)cyclohexane monohydrochloride]?
Answer: concentration at 10 min ([1]; 2 mg/kg, patients receiving both infusions (3.0 + 2.0 mg/kg), read-out: Plasma Concentration of COMPOUND A at 10 min., Mean): 3910 ng/mL; concentration at 10 min ([1]; 3 mg/kg, patients receiving only a first infusion (3.0 mg/kg), read-out: Plasma Concentration of COMPOUND A at 10 min., Mean): 4280 ng/mL; concentration at 10 min ([1]; 3 mg/kg, patients receiving only a first infusion, read-out: Plasma Concentration of COMPOUND A at 10 min., Maximum): 11600 ng/mL; concentration at 10 min ([1]; 3 mg/kg, patients receiving only a first infusion, read-out: Plasma Concentration of COMPOUND A at 10 min., Median): 4080 ng/mL; concentration at 10 min ([1]; 3 mg/kg, patients receiving only a first infusion, read-out: Plasma Concentration of COMPOUND A at 10 min., Minimum): 0 ng/mL; concentration at 10 min ([1]; patients receiving both infusions, read-out: Plasma Concentration of COMPOUND A at 10 min., Maximum): 9330 ng/mL; concentration at 10 min ([1]; patients receiving both infusions, read-out: Plasma Concentration of COMPOUND A at 10 min., Median): 4070 ng/mL; concentration at 10 min ([1]; patients receiving both infusions, read-out: Plasma Concentration of COMPOUND A at 10 min., Minimum): 0 ng/mL; Maximum Plasma Concentration of COMPOUND A, Maximum [1, 4]: 9330 ng/mL; Maximum Plasma Concentration of COMPOUND A, Median [1, 4]: 4855 ng/mL; Maximum Plasma Concentration of COMPOUND A, Minimum [1, 4]: 1430 ng/mL; Maximum Plasma Concentration of COMPOUND A, Mean ([1]; patients receiving both infusions (3.0 + 2.0 mg/kg)): 4662 ng/mL; Maximum Plasma Concentration of COMPOUND A, Maximum [1, 5]: 11600 ng/mL; Maximum Plasma Concentration of COMPOUND A, Median [1, 5]: 4075 ng/mL; Maximum Plasma Concentration of COMPOUND A, Minimum [1, 5]: 7 ng/mL; Maximum Plasma Concentration of COMPOUND A, Mean ([1]; patients receiving only a first infusion (3.0 mg/kg)): 4466 ng/mL; Plasma drug levels at 24 h post-infusion (below the limit of detection) ([2]; RSD-1, majority of patients): < 5 ng/mL; mean plasma levels at 24 h ([2]; RSD-2 group): 17 ng/mL; Mean peak plasma levels ([2]; patients that received both 0.5 and 1.0 mg/kg): 1.9 µg/mL; Mean peak plasma levels ([2]; patients that received both the 2.0 and 3.0 mg/kg infusions): 5.8 µg/mL; mean peak plasma levels at the end of infusion [2, 6]: 2.6 µg/mL; mean terminal elimination half life [2, 6]: 3.1 h; median plasma level at the time of AF conversion [2, 6]: 1.3 µg/mL; serious adverse events: Cardiac disorders (%) [3, 7]: 10.0%; serious adverse events: Cardiac disorders (number) [3, 7]: 22; serious adverse events: Infections and infestations (%) [3, 7]: 1.4%; serious adverse events: Infections and infestations (number) [3, 7]: 3; serious adverse events: Nervous system disorders (%) [3, 7]: 0.0%; serious adverse events: Nervous system disorders (number) [3, 7]: 0; serious adverse events: Respiratory, thoracic and mediastinal disorders (%) [3, 7]: 1.8%; serious adverse events: Respiratory, thoracic and mediastinal disorders (number) [3, 7]: 4; serious adverse events: Total (%) [3, 7]: 13.1%; serious adverse events: Total (number) [3, 7]: 29; serious adverse events: Vascular disorders (%) [3, 7]: 1.4%; serious adverse events: Vascular disorders (number) [3, 7]: 3; Monomorphic sustained ventricular tachycardia (%) [3, 8]: 0.0%; Monomorphic sustained ventricular tachycardia (number) [3, 8]: 0; Monomorphic unsustained aberrant condition (%) [3, 8]: 1.4%; Monomorphic unsustained aberrant condition (number) [3, 8]: 3; Monomorphic unsustained ventricular tachycardia (%) [3, 8]: 0.9%; Monomorphic unsustained ventricular tachycardia (number) [3, 8]: 2; Polymorphic sustained ventricular tachycardia (%) [3, 8]: 0.0%; Polymorphic sustained ventricular tachycardia (number) [3, 8]: 0; Polymorphic unsustained aberrant condition (%) [3, 8]: 0.0%; Polymorphic unsustained aberrant condition (number) [3, 8]: 0; Polymorphic unsustained ventricular tachycardia (%) [3, 8]: 0.0%; Polymorphic unsustained ventricular tachycardia (number) [3, 8]: 0; Torsades de Pointes (%) [3, 8]: 0.0%; Torsades de Pointes (number) [3, 8]: 0; Ventricular Rhythm >=5 beats: Total (%) [3, 8]: 2.3%; Ventricular Rhythm >=5 beats: Total (number) [3, 8]: 5; Ventricular escape rhythm (%) [3, 8]: 0.0%; Ventricular escape rhythm (number) [3, 8]: 0; treatment-emergent adverse event: Atrial fibrillation (%) [3, 9]: 4%; treatment-emergent adverse event: Atrial fibrillation (number) [3, 9]: 8; treatment-emergent adverse event: Cough (%) [3, 9]: 5%; treatment-emergent adverse event: Cough (number) [3, 9]: 11; treatment-emergent adverse event: Dysgeusia (%) [3, 9]: 30%; treatment-emergent adverse event: Dysgeusia (number) [3, 9]: 66; treatment-emergent adverse event: Hypotension (%) [3, 9]: 6%; treatment-emergent adverse event: Hypotension (number) [3, 9]: 14; treatment-emergent adverse event: Nausea (%) [3, 9]: 9%; treatment-emergent adverse event: Nausea (number) [3, 9]: 20; treatment-emergent adverse event: Paraesthesia (%) [3, 9]: 11%; treatment-emergent adverse event: Paraesthesia (number) [3, 9]: 24; treatment-emergent adverse event: Pruritus (%) [3, 9]: 6%; treatment-emergent adverse event: Pruritus (number) [3, 9]: 13; treatment-emergent adverse event: Sneezing (%) [3, 9]: 16%; treatment-emergent adverse event: Sneezing (number) [3, 9]: 36; responders converted after the first dosing ([3]; both the short duration subgroup and the entire group): 76%; responders relapsed into atrial fibrillation in the first 24 hours post-dosing ([3]; in vivo): one; Electrical cardioversion was attempted (%) ([3]; n = 221): 43%; Electrical cardioversion was attempted (number) ([3]; n = 221): 96; Successfully converted by electrical cardioversion (%) [3, 10]: 85%; Successfully converted by electrical cardioversion (number) [3, 10]: 82; median time to conversion ([3]; entire group (3 hrs-45 days atrial fibrillation)): 11.5 min; median time to conversion ([3]; short duration subgroup (3 hrs-7 days atrial fibrillation)): 11 min
